# Results published in patent US9695155B2, “Herbicidal substituted pyrimidinyloxy benzene compounds” (E. I. DU PONT DE NEMOURS AND COMPANY, priority 2013, dated 2017).
# What was measured:
# wheat [1] = assay: Test A postemergence; assay type: in vivo, Triticum aestivum
# Outline: (§1)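 Pre- and postemergence greenhouse screen. Soil: loam + sand. Spray carrier: solvent mixture, non-phytotoxic, with surfactant. Post timing at 1–2 leaves, height 2–10 cm. Readout: visual injury on a 0–100 scale roughly 10 days after application, untreated plants as reference.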
# giant foxtail = assay: Test A postemergence; assay type: in vivo, Setaria faberii
# Outline: as §1
# rice = assay: Test B flooded paddy test; assay type: in vivo, Oryza sativa; conditions: Flood, 250 g ai/ha; 0 to 100 scale where 0 is no effect and 100 is complete control
# Outline: (§2)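 Visual ratings on a 0 to 100 scale, where 100 means complete control, compared treated plants with controls after 13 to 15 days in a greenhouse. Treatment went into paddy water 3 cm deep over the soil, applied to plants at the 2-leaf stage.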
# Heteranthera limosa = assay: Test B flooded paddy test; assay type: in vivo; conditions: Flood, 250 g ai/ha; 0 to 100 scale where 0 is no effect and 100 is complete control
# Outline: as §2
# wheat [2] = assay: Test A preemergence; assay type: in vivo, Triticum aestivum; conditions: for Wheat plant response rating (0 to 100 scale): 125 g ai/ha; for Wheat plant response rating: 500 g ai/ha, 0 to 100 scale where 0 is no effect and 100 is complete control
# Outline: as §1
# large (Lg) crabgrass [3] = assay: Test A postemergence; assay type: in vivo, Digitaria sanguinalis
# Outline: as §1
# large (Lg) crabgrass [4] = assay: Test A preemergence; assay type: in vivo, Digitaria sanguinalis; conditions: for Plant response rating, Crabgrass, Large / Crabgrass, Large plant response rating: 0 to 100 scale where 0 is no effect and 100 is complete control; for Crabgrass, Large plant response rating: 500 g ai/ha
# Outline: as §1
# velvetleaf [5] = assay: Test A postemergence; assay type: in vivo, Abutilon theophrasti
# Outline: as §1
# velvetleaf [6] = assay: Test A preemergence; assay type: in vivo, Abutilon theophrasti; conditions: for Velvetleaf plant response rating (0 to 100 scale): 125 g ai/ha; for Velvetleaf plant response rating: 500 g ai/ha, 0 to 100 scale where 0 is no effect and 100 is complete control
# Outline: as §1
# lambsquarters = assay: Test C postemergence; assay type: in vivo, Chenopodium album
# Excerpt: (§3) Seeds of plant species selected from blackgrass (Alopecurus myosuroides), Italian ryegrass (Lolium multiflorum), wheat, winter (winter wheat, Triticum aestivum), galium (catchweed bedstraw, Galium aparine), corn (Zea mays), large (Lg) crabgrass (Digitaria sanguinalis), giant foxtail (Setaria faberii), johnsongrass (Sorghum halepense), lambsquarters (Chenopodium album), morningglory (Ipomoea coccinea), yellow nutsedge (Cyperus esculentus), pigweed (Amaranthus retroflexus), ragweed (common ragweed, Ambrosia elatior), soybean (Glycine max), barnyardgrass (Echinochloa crus-galli), oilseed rape (Brassica napus), waterhemp (common waterhemp, Amaranthus rudis), kochia (Kochia scoparia), wild oat (Avena fatua), surinam grass (Brachiaria decumbens), foxtail, green (green foxtail, Setaria viridis), goosegrass (Eleusine indica), bromegrass, downy (downy bromegrass, Bromus tectorum), nightshade (eastern black nightshade, Solanum ptycanthum), cocklebur (common cocklebur, Xanthium strumarium), cupgrass, woolly (woolly cupgrass, Eriochloa villosa), bermudagrass (Cynodon dactylon), sunflower, (common oilseed sunflower, Helianthus annuus), Russian thistle (Salsola kali), and velvetleaf (Abutilon theophrasti) were planted into a blend of loam soil and sand and treated preemergence with test chemicals formulated in a non-phytotoxic solvent mixture which included a surfactant.
# (§4) At the same time, plants selected from these crop and weed species and also barley, winter (winter barley, Hordeum vulgare), windgrass (Apera spica-venti), chickweed (common chickweed, Stellaria media), deadnettle (henbit deadnettle, Lamium amplexicaule), and canarygrass (littleseed canarygrass, Phalaris minor) were planted in pots containing Redi-Earth® planting medium (Scotts Company, 14111 Scottslawn Road, Marysville, Ohio 43041) comprising spaghnum peat moss, vermiculite, wetting agent and starter nutrients and treated with postemergence applications of test chemicals formulated in the same manner. Plants ranged in height from 2 to 18 cm (1- to 4-leaf stage) for postemergence treatments. Treated plants and controls were maintained in a greenhouse for 13 to 15 days, after which time all species were compared to controls and visually evaluated. Plant response ratings, summarized in Table C, are based on a scale of 0 to 100 where 0 is no effect and 100 is complete control. A dash (-) response means no test result.
# morningglory = assay: Test C postemergence; assay type: in vivo, Ipomoea coccinea
# Excerpt: as §3, §4
# oilseed rape = assay: Test C postemergence; assay type: in vivo, Brassica napus
# Excerpt: as §3, §4
# pigweed = assay: Test C postemergence; assay type: in vivo, Amaranthus retroflexus
# Excerpt: as §3, §4
# kochia = assay: Test C postemergence; assay type: in vivo, Kochia scoparia
# Excerpt: as §3, §4
# soybean = assay: Test C postemergence; assay type: in vivo, Glycine max
# Excerpt: as §3, §4
# [7] = 125 g ai/ha, 0 to 100 scale where 0 is no effect and 100 is complete control
# [8] = 500 g ai/ha, 0 to 100 scale where 0 is no effect and 100 is complete control
# [9] = 16 g ai/ha, postemergence, 0 is no effect, 100 is complete control
# [10] = 31 g ai/ha, postemergence, visual rating, scale 0 to 100 (0 no effect, 100 complete control), 13 to 15 days
# [11] = 125 g ai/ha, postemergence, visual rating, scale 0 to 100 (0 no effect, 100 complete control)
# [12] = Postemergence, 62 g ai/ha, scale 0 to 100 (0 no effect, 100 complete control)
# [13] = 125 g ai/ha, 0 to 100 scale, 0 no effect, 100 complete control
compound,measurement,setting,value
N#Cc1cnn(-c2c(C#N)cccc2Oc2ncc(Br)cn2)c1 [Compound 135],Wheat plant response rating,wheat [1]; [7],10
same,"Plant response rating, Wheat",wheat [1]; [8],60
same,"Foxtail, Giant plant response rating",giant foxtail; [7],70
same,"Plant response rating, Foxtail, Giant",giant foxtail; [8],100
same,"Plant response rating, Rice",rice,0
same,"Plant response rating, Ducksalad",Heteranthera limosa,70
FC(F)c1cccc(Oc2ncc(Cl)cn2)c1-n1cc(C(F)(F)F)cn1 [Compound 170],Wheat plant response rating (0 to 100 scale),wheat [2],20
same,Wheat plant response rating,wheat [2],20
same,Wheat plant response rating,wheat [1]; [7],30
same,"Plant response rating, Wheat",wheat [1]; [8],70
same,"Crabgrass, Large plant response rating",large (Lg) crabgrass [3]; [7],70
same,"Plant response rating, Crabgrass, Large",large (Lg) crabgrass [3]; [8],90
same,"Plant response rating, Crabgrass, Large",large (Lg) crabgrass [4]; 125 g ai/ha,100
same,"Crabgrass, Large plant response rating",large (Lg) crabgrass [4],100
same,"Foxtail, Giant plant response rating",giant foxtail; [7],70
same,"Plant response rating, Foxtail, Giant",giant foxtail; [8],90
same,Velvetleaf plant response rating,velvetleaf [5]; [7],70
same,"Plant response rating, Velvetleaf",velvetleaf [5]; [8],100
same,"Plant response rating, Rice",rice,50
same,"Plant response rating, Ducksalad",Heteranthera limosa,95
same,Velvetleaf plant response rating (0 to 100 scale),velvetleaf [6],80
same,Velvetleaf plant response rating,velvetleaf [6],100
FC(F)c1cccc(Oc2ncc(Br)cn2)c1-n1cc(C(F)(F)F)cn1 [Compound 163],Wheat plant response rating (0 to 100 scale),wheat [2],0
same,Wheat plant response rating,wheat [2],10
same,"Plant response rating (0 to 100), Lambsquarters",lambsquarters; [9],60
same,Lambsquarters plant response rating,lambsquarters; [10],80
same,"Plant response rating, Lambsquarters",lambsquarters; [11],95
same,"Plant response rating, Lambsquarters",lambsquarters; [12],85
same,"Plant response rating (0 to 100), Morningglory",morningglory; [9],20
same,Morningglory plant response rating,morningglory; [10],50
same,"Plant response rating, Morningglory",morningglory; [11],90
same,"Plant response rating, Morningglory",morningglory; [12],65
same,"Plant response rating (0 to 100), Oilseed Rape",oilseed rape; [9],45
same,Oilseed Rape plant response rating,oilseed rape; [10],30
same,"Plant response rating, Oilseed Rape",oilseed rape; [11],80
same,"Plant response rating, Oilseed Rape",oilseed rape; [12],60
same,Wheat plant response rating,wheat [1]; [7],10
same,"Plant response rating, Wheat",wheat [1]; [8],60
same,"Crabgrass, Large plant response rating",large (Lg) crabgrass [3]; [7],30
same,"Plant response rating, Crabgrass, Large",large (Lg) crabgrass [3]; [8],90
same,"Plant response rating, Crabgrass, Large",large (Lg) crabgrass [4]; 125 g ai/ha,100
same,"Crabgrass, Large plant response rating",large (Lg) crabgrass [4],100
same,"Plant response rating (0 to 100), Pigweed",pigweed; [9],80
same,Pigweed plant response rating,pigweed; [10],85
same,"Plant response rating, Pigweed",pigweed; [11],90
same,"Plant response rating, Pigweed",pigweed; [12],90
same,"Foxtail, Giant plant response rating",giant foxtail; [7],50
same,"Plant response rating, Foxtail, Giant",giant foxtail; [8],90
same,Velvetleaf plant response rating,velvetleaf [5]; [7],100
same,"Plant response rating, Velvetleaf",velvetleaf [5]; [8],100
same,"Plant response rating (0 to 100), Kochia",kochia; [9],90
same,Kochia plant response rating,kochia; [10],90
same,"Plant response rating, Kochia",kochia; [11],100
same,"Plant response rating, Kochia",kochia; [12],100
same,"Plant response rating, Rice",rice,25
same,"Plant response rating (0 to 100), Soybean",soybean; [9],35
same,Soybean plant response rating,soybean; [10],50
same,"Plant response rating, Soybean",soybean; [11],75
same,"Plant response rating, Soybean",soybean; [12],80
same,"Plant response rating, Ducksalad",Heteranthera limosa,90
same,Velvetleaf plant response rating (0 to 100 scale),velvetleaf [6],20
same,Velvetleaf plant response rating,velvetleaf [6],100
NC(=S)c1cccc(Oc2ncc(Cl)cn2)c1-n1cc(Cl)cn1 [Compound 292],Wheat plant response rating (0 to 100 scale),wheat [2],10
same,Wheat plant response rating,wheat [2],30
same,"Plant response rating, Wheat",wheat [1]; [13],10
same,"Plant response rating, Wheat",wheat [1]; [8],60
same,"Plant response rating, Crabgrass, Large",large (Lg) crabgrass [3]; [13],60
same,"Plant response rating, Crabgrass, Large",large (Lg) crabgrass [3]; [8],90
same,"Crabgrass, Large plant response rating (0 to 100 scale)",large (Lg) crabgrass [4]; 125 g ai/ha,100
same,"Crabgrass, Large plant response rating",large (Lg) crabgrass [4],100
same,"Plant response rating, Foxtail, Giant",giant foxtail; [13],70
same,"Plant response rating, Foxtail, Giant",giant foxtail; [8],90
same,"Plant response rating, Velvetleaf",velvetleaf [5]; [13],70
same,"Plant response rating, Velvetleaf",velvetleaf [5]; [8],100
same,"Plant response rating, Rice",rice,20
same,"Plant response rating, Ducksalad",Heteranthera limosa,45
same,Velvetleaf plant response rating (0 to 100 scale),velvetleaf [6],30
same,Velvetleaf plant response rating,velvetleaf [6],100
